In the NIST ThermoML archive (doi:10.1021/acs.jced.9b00436):
Several values for one entry are separate records, joined by “and”; a condition that tells them apart may be missing. Equal entries are not always repeated.

How the values were obtained:
[1] = an = ratio of the nth substance listed; settings: 100 kPa, Liquid; for mass density: Vibrating tube method; for viscosity: Falling or rolling sphere viscometry; for speed of sound: Frequency=5 MHz, Single path-length method
[2] = 100 kPa, Liquid, Frequency=5 MHz, Single path-length method
[3] = xn = mol fraction of the nth substance listed; settings: 308 K; 100 kPa; Liquid; Frequency=5 MHz; Single path-length method; x2 = 0.333

O=C(O)CC(=O)O [propanedioic acid] + C[N+](C)(C)CCO.[Cl-]
[1]
Settings	mass density, a1 = 1 [kg/m3]	speed of sound, a1 = 2 [m/s]	viscosity, a1 = 2 [mPa·s]
293 K	1185.1	–	–
298 K	1182.1	–	–
303 K	1178.6	1876	1128.6
308 K	1175.6	1863	812.9
313 K	1172.3	1851	597.3
318 K	1169.1	1838	446.1
323 K	1166	1825	342.3
328 K	1162.7	1812	–
333 K	1160.3	1799	–

CCCCCCCCCCCCCCCC [hexadecane]
[2]
Settings	speed of sound [m/s]
293 K	1356
298 K	1340
303 K	1325
313 K	1287
318 K	1268
323 K	1248
328 K	1227
333 K	1210

CCCCCCCC[N+](C)(CCCCCCCC)CCCCCCCC.[Br-] [methyltrioctylammonium bromide] + CCCCCCCCCC(=O)O
[1], a2 = 2
Settings	mass density [kg/m3]	speed of sound [m/s]	viscosity [mPa·s]
293 K	945.4	1406	806
298 K	942.2	1393	572.6
303 K	939.9	1375	411.4
308 K	935.2	1357	305.2
313 K	931.9	1341	226.2
318 K	928.3	1326	171.5
323 K	925.3	1312	132.4
328 K	923.1	1297	104.5
333 K	920.8	1283	83.7

C[N+](C)(C)CCO.[Cl-] [choline chloride] + OCCO
[1], a2 = 2
Settings	mass density [kg/m3]	speed of sound [m/s]	viscosity [mPa·s]
293 K	1117.1	1896	50
298 K	1114.5	1882	40.4
303 K	1111.4	1871	33.6
308 K	1108.6	1860	27.9
313 K	1105.7	1848	23.6
318 K	1102.6	1837	19.9
323 K	1100.1	1826	17.2
328 K	1096.7	1813	14.6
333 K	1094.7	1802	12.8

NC(N)=O [urea] + C[N+](C)(C)CCO.[Cl-]
Settings	speed of sound [m/s]
[3]	2016

[1], a1 = 2
Settings	mass density [kg/m3]	speed of sound	viscosity [mPa·s]
293 K	1200.1	2045 m/s	1372
298 K	1198.1	2035 m/s	985.1
303 K	1194.5	2027 m/s	527.3
308 K	1191.7	2020 m/s and 2018 m/s	397.2
313 K	1188.7	2009 m/s	238.1
318 K	1185.5	2002 m/s	181.6
323 K	1183.1	1992 m/s	119.8
328 K	1179.2	1983 m/s	98.2
333 K	1177.3	1976 m/s	68.6

CCCCCCCCCC(=O)O [decanoic acid] + CCCCCCCCCCCCCC[P+](CCCCCC)(CCCCCC)CCCCCC.[Cl-]
[1], a1 = 2
Settings	mass density [kg/m3]	speed of sound [m/s]	viscosity [mPa·s]
293 K	898.5	1437	346.3
298 K	895.4	1418	260.5
303 K	893.2	1402	197.8
308 K	888.6	1384	151.6
313 K	885.4	1366	117.9
318 K	881.9	1349	93.7
323 K	879.1	1333	76
328 K	877.1	1314	62.8
333 K	874.9	1303	52.8

CCCCCCCC[N+](CCCCCCCC)(CCCCCCCC)CCCCCCCC.[Br-] [tetraoctylammonium bromide] + CCCCCCCCCC(=O)O
[1], a2 = 2
Settings	mass density [kg/m3]	speed of sound [m/s]	viscosity [mPa·s]
293 K	933.7	1416	908.9
298 K	930.6	1402	648
303 K	928.4	1382	472
308 K	923.7	1365	350
313 K	920.5	1347	264.3
318 K	916.9	1331	201.1
323 K	913.9	1317	156.9
328 K	911.8	1301	123.4
333 K	909.5	1287	98.4

O [water]
[2]
Settings	speed of sound [m/s]
298 K	1501
303 K	1511.5
313 K	1527.5
318 K	1535
323 K	1542
328 K	1547
333 K	1550

C[N+](C)(C)CCO.[Cl-] [choline chloride] + OCC(O)CO
[1], a2 = 2
Settings	mass density [kg/m3]	speed of sound [m/s]	viscosity [mPa·s]
293 K	1194.3	1987	473
298 K	1191.7	1975	364.4
303 K	1188.5	1963	246.8
308 K	1185.5	1952	193.8
313 K	1182.7	1941	133.4
318 K	1179.3	1932	110.4
323 K	1177	1923	81.6
328 K	1173.1	1910	70.2
333 K	1171.3	1900	53.8
